Reference: ChEMBL document CHEMBL1122963, “[3H]Batrachotoxinin A 20 alpha-benzoate binding to voltage-sensitive sodium channels: a rapid and quantitative assay for local anesthetic activity in a variety of drugs” (J Med Chem, 1985)

What was measured:
[1] = target: T1, Sodium channel alpha subunits; brain (Types I, II, III) (Homo sapiens, UniProt P35498+Q99250+Q9NY46); details: Cavia porcellus; Cerebral cortex; at 10 µM
[2] = target: T1, Sodium channel alpha subunits; brain (Types I, II, III); details: Cavia porcellus; Cerebral cortex; at 100 µM
[3] = target: T1, Sodium channel alpha subunits; brain (Types I, II, III); test: Inhibition of binding of Batrachotoxinin [3H]BTX-B to high affinity sites on voltage dependent sodium channels in a vesicular preparation from guinea pig cerebral cortex; format: tissue-based, Cavia porcellus

T1 sequence (Q99250 whole entry, looked up, other chains not shown): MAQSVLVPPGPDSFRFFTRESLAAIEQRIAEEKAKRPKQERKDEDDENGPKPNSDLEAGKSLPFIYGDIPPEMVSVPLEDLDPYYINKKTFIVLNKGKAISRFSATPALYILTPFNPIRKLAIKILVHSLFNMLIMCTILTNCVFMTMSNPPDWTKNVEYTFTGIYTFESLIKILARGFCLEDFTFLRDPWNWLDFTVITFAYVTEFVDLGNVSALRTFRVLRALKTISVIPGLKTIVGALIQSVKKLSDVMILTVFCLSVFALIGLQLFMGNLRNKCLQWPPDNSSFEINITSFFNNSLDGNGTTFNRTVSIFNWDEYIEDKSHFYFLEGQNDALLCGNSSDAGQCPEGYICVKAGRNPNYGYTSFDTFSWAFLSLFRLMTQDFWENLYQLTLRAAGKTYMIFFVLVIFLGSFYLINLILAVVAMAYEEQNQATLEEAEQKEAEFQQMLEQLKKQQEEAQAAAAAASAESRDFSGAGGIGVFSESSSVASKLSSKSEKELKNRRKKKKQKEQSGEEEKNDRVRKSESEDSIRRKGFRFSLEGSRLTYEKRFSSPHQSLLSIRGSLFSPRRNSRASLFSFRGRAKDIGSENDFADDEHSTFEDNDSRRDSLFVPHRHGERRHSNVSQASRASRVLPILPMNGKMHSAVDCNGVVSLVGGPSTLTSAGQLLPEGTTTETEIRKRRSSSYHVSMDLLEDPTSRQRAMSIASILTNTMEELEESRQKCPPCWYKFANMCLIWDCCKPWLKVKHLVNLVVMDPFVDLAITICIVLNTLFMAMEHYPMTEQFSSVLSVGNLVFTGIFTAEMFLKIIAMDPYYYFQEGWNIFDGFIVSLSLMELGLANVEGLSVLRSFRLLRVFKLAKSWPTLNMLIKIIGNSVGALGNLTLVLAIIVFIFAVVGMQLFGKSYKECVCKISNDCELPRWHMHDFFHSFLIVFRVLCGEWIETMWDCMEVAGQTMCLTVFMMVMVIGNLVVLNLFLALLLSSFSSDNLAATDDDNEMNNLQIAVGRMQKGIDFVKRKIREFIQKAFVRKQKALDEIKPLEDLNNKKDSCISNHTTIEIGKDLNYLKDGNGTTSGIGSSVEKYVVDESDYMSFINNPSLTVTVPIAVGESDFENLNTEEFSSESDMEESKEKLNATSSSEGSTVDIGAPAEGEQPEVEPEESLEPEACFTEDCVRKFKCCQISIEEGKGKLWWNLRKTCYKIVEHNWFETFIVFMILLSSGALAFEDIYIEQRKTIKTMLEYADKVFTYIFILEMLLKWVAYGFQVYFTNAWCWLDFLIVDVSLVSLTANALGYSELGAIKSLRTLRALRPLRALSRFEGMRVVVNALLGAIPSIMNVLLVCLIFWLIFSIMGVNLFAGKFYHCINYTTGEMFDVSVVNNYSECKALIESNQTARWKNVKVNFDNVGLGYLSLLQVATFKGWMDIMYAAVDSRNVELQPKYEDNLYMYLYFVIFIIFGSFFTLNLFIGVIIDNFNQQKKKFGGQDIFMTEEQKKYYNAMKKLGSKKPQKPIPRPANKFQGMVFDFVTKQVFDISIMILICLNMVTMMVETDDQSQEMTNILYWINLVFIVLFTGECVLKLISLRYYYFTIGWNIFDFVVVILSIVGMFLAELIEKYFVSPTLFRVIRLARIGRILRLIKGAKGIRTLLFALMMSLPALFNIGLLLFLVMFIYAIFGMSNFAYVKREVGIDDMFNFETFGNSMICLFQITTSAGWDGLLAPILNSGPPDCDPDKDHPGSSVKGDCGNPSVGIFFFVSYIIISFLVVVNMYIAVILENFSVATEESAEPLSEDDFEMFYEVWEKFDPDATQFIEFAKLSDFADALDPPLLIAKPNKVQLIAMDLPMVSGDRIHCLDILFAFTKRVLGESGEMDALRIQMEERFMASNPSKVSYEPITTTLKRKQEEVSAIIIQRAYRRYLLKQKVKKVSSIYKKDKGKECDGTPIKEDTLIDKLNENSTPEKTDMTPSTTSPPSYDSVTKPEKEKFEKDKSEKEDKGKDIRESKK
T1 sequence (Q9NY46 whole entry, looked up, other chains not shown): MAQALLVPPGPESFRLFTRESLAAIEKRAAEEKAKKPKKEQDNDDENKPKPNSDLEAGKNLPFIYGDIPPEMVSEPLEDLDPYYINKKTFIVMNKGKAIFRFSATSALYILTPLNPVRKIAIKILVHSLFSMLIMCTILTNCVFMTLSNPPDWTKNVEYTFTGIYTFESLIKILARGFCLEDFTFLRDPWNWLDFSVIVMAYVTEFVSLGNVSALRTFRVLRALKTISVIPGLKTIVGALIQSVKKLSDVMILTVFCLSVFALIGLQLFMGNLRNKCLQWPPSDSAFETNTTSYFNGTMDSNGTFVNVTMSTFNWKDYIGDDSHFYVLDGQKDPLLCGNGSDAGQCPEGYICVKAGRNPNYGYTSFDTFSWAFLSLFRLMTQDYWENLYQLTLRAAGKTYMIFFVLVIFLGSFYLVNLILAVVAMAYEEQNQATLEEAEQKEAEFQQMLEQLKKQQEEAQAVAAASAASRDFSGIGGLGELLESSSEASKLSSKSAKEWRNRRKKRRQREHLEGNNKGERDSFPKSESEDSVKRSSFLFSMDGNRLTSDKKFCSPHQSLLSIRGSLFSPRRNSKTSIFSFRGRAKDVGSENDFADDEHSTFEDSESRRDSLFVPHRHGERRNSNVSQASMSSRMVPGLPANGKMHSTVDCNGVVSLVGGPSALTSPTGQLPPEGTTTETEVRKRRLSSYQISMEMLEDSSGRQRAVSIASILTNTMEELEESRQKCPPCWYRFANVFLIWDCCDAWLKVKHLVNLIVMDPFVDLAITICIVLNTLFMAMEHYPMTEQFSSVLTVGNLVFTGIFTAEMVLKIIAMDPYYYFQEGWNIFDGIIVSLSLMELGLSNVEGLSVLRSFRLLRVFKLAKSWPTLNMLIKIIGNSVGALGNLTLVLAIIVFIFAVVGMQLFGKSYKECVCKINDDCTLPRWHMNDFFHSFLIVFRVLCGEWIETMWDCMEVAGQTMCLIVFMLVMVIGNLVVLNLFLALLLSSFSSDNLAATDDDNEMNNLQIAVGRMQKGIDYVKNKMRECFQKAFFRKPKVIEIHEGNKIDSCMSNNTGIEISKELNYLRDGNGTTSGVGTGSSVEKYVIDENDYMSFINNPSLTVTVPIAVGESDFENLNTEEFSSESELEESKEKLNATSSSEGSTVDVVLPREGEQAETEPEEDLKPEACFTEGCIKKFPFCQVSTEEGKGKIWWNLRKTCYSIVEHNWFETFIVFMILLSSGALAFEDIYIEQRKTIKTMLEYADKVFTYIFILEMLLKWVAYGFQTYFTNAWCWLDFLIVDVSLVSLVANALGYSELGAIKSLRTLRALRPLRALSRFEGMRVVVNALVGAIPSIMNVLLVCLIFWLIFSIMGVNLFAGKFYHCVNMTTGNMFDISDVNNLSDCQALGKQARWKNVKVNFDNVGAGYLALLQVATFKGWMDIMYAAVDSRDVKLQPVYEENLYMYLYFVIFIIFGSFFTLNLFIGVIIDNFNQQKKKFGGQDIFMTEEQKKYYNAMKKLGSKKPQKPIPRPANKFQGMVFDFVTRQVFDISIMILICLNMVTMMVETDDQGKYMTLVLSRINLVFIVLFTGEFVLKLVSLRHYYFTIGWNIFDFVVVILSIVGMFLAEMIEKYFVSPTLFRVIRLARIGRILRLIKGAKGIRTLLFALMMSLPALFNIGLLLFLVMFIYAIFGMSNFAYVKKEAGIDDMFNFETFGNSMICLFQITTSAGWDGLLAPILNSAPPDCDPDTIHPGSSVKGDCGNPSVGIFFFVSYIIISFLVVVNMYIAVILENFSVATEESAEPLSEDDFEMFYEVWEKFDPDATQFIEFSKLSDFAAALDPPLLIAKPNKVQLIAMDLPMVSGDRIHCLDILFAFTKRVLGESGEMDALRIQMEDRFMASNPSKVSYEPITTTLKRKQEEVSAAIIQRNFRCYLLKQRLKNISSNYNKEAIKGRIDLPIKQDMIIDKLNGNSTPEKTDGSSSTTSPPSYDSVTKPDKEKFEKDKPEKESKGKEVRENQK

Row | Compound | inhibition [1] | inhibition [2] | IC50 [3]
1 | CCOC(=O)c1cnc2c(cnn2CC)c1NN=C(C)C | 8.3% | 20.1% | –
2 | CN1CCc2cc3c(cc2[C@H]1[C@@H]1OC(=O)c2c1ccc1c2OCO1)OCO3 | – | 1.8% | –
3 | CCCNC(C)C(=O)Nc1c(C)csc1C(=O)OC (configuration not stated) [ARTICAINE] | 17.1% | 62.2% | –
4 | COc1ccc2c(c1)c(CC(=O)O)c(C)n2C(=O)c1ccc(Cl)cc1 | 3.3% | 11.2% | –
5 | Nc1ccncc1 | 1.2% | 3.8% | –
6 | CN1CC[C@]23c4c5ccc(O)c4O[C@H]2[C@@H](O)C=C[C@H]3[C@H]1C5 | – | 5.3% | –
7 | CC[C@@H](CO)NC(=O)[C@@H]1C=C2c3cccc4c3c(cn4C)C[C@H]2N(C)C1 | – | 17.8% | –
8 | CN(C)CCCN1c2ccccc2[S+]([O-])c2ccc(Cl)cc21 (configuration not stated) | 18% | 69.1% | –
9 | CC(C)NCC(O)c1ccc(NS(C)(=O)=O)cc1 (configuration not stated) | – | 4.6% | –
10 | CN(C)CCC=C1c2ccccc2CCc2ccccc21 [AMITRIPTYLINE] | 73.8% | – | < 10 µM
11 | COc1cc(C(=O)OCCCN2CCCN(CCCOC(=O)c3cc(OC)c(OC)c(OC)c3)CC2)cc(OC)c1OC [DILAZEP] | 99.3% | – | 0.6 µM
12 | C[N+](C)(CC(=O)Nc1ccccc1)CC(=O)Nc1ccccc1.[Cl-] [CARCAINIUM CHLORIDE] | 71.6% | – | 3.9 µM
13 | CCN(CC)CCOC(=O)C1(C2CCCCC2)CCCCC1 [DICYCLOMINE] | 75% | – | 28 µM
14 | CSc1ccc2c(c1)N(CCC1CCCCN1C)c1ccccc1S2 (configuration not stated) [THIORIDAZINE] | 63.5% | – | 6.5 µM
15 | CN1CC[C@]23CCCC[C@H]2[C@H]1Cc1ccc(O)cc13 [LEVORPHANOL] | 33% | – | 25 µM
16 | CN(C)CCCN1c2ccccc2Sc2ccc(Cl)cc21 [CHLORPROMAZINE] | 72.2% | – | 4.3 µM
17 | COc1ccc(C2C(=O)c3ccccc3C2=O)cc1 | 1.3% | 0% | –
18 | CN(C)CCC(c1ccc(Cl)cc1)c1ccccn1 (configuration not stated) [CHLORPHENIRAMINE] | 49.7% | – | 10 µM
19 | CCOC(=O)C1=C(C)NC(C)=C(C(=O)OC)C1c1cccc(Cl)c1Cl (configuration not stated) [FELODIPINE] | 20.1% | – | 37 µM
20 | Cn1c(=O)c2nc(-c3ccc(S(=O)(=O)O)cc3)[nH]c2n(C)c1=O | 1.6% | 2.9% | –
21 | CCCCOc1cc(C(=O)OCCN(CC)CC)ccc1N [BENOXINATE] | 73.4% | – | 2.9 µM
22 | CCN(CC)CCNC(=O)c1ccc(N)cc1 | 7.8% | 22.5% | –
23 | CN1CCN(CCCN2c3ccccc3Sc3ccc(C(F)(F)F)cc32)CC1 [TRIFLUOPERAZINE] | 79.8% | – | 5 µM
24 | CCCCN(CCCC)CCCOC(=O)c1ccc(N)cc1 [BUTACAINE] | 75.3% | – | 2.7 µM
25 | CCCC(C)C1(CC)C(=O)NC(=O)NC1=O (configuration not stated) | 1.2% | 7.6% | –
26 | CCCCOC(=O)c1ccc(N)cc1 | 7% | 36.8% | –

Row | Compound | inhibition [1] | inhibition [2] | IC50 [3]
27 | CCCCC1=C(N(C)C)c2cc3c(cc2C1)OCO3 | 45% | – | 12.5 µM
28 | CC(Cc1ccccc1)NCCC(c1ccccc1)c1ccccc1 (configuration not stated) [PRENYLAMINE] | 98.8% | – | 0.3 µM
29 | C[N+](C)(C)CCOC(c1ccccc1)c1ccccc1.[I-] | 69% | – | 64 µM
30 | CC(C)COCC(CN(Cc1ccccc1)c1ccccc1)N1CCCC1 (configuration not stated) [BEPRIDIL] | 96.2% | – | 0.84 µM
31 | CCCC[N+]1(C)CCCCC1C(=O)Nc1c(C)cccc1C.[I-] (configuration not stated) | 64.5% | – | 4.8 µM
32 | CN(C)C(=O)C(CCN1CCC(O)(c2ccc(Cl)c(C(F)(F)F)c2)CC1)(c1ccccc1)c1ccccc1 [FLUPERAMIDE] | 100% | – | 0.28 µM
33 | CCN(CC)CCCC(C)Nc1c2ccc(Cl)cc2nc2ccc(OC)cc12 (configuration not stated) [QUINACRINE] | 73.3% | – | 3.3 µM
34 | CCCC(C(=O)OCCN(CC)CC)(c1ccccc1)c1ccccc1 [PROADIFEN] | 75.4% | – | 4.2 µM
35 | CN(C)CCC(c1ccccc1)c1ccccn1 (configuration not stated) [PHENIRAMINE] | 24.9% | – | 33 µM
36 | Cc1ccc(OCC(O)C(C)NC(C)C)c2c1CCC2 (configuration not stated) [ZENIDOLOL] | 64.2% | – | < 10 µM
37 | CN1CC[C@@]23CCCC[C@@H]2[C@@H]1Cc1ccc(O)cc13 [DEXTRORPHAN] | 38.2% | – | 18 µM
38 | Cl.NCCCCCCNS(=O)(=O)c1cccc2ccccc12 | 33.3% | – | 22 µM
39 | CN/C(=N\CCSCc1nc[nH]c1C)NC#N | 0% | 4.1% | –
40 | Cl.NCCCCCCNS(=O)(=O)c1cccc2c(Cl)cccc12 [N-AMINOHEXYL-5-CHLORO-1-NAPTHALENESULFONAMIDE HYDROCHLORIDE] | 46.8% | – | 12 µM
41 | CN1CCN2c3ccccc3Cc3ccccc3C2C1 (configuration not stated) [MIANSERIN] | 57.4% | – | 5.5 µM
42 | O=C1C[C@@H]2OCC=C3CN4CC[C@]56c7ccccc7N1[C@H]5[C@H]2[C@H]3C[C@H]46 [STRYCHNINE] | 35.7% | – | 21 µM
43 | O=C(Nc1ccccc1)OCC(CN1CCCCC1)OC(=O)Nc1ccccc1 (configuration not stated) [DIPERODON] | 87.8% | – | 1.3 µM
44 | Cc1cccc(C)c1NC(=O)C1CCCCN1C (configuration not stated) | 5.3% | 29.3% | –
45 | COc1ccc(Cc2nccc3cc(OC)c(OC)cc23)cc1OC | 11% | 56% | –
46 | CC(C)NC[C@@H](O)COc1cccc2ccccc12 [DEXPROPRANOLOL] | 50% | – | 10 µM
47 | COC(=O)C1=C(C)NC(C)=C(C(=O)OCC(C)C)C1c1ccccc1[N+](=O)[O-] (configuration not stated) [NISOLDIPINE] | 25.9% | – | 26 µM
48 | COc1cc2nc(N3CCN(C(=O)c4ccco4)CC3)nc(N)c2cc1OC [PRAZOSIN] | 58.6% | – | 10.1 µM
49 | CC(CN1c2ccccc2Sc2ccccc21)N(C)C (configuration not stated) [PROMETHAZINE] | 61% | – | 6.9 µM
50 | CCCC(C(=O)OCC[N+](C)(CC)CC)(c1ccccc1)c1ccccc1.[I-] | 72% | – | 4.2 µM
51 | COc1ccc(C2CNC(=O)C2)cc1OC1CCCC1 (configuration not stated) | 3.1% | 8.5% | –
52 | CN1C(=O)CN=C(c2ccccc2)c2cc(Cl)ccc21 | 15.2% | 45.4% | –

Row | Compound | inhibition [1] | inhibition [2] | IC50 [3]
53 | CN(C)CCC=C1c2ccccc2COc2ccccc21 [DOXEPIN] | 67.7% | – | < 10 µM
54 | CN(C)CCCN1c2ccccc2Sc2ccccc21 [PROMAZINE] | 65.3% | – | 5.4 µM
55 | C[C@]12CC[C@@H]3c4ccc(O)cc4CC[C@H]3[C@@H]1CC[C@@H]2O | 17.8% | 53.3% | –
56 | COc1ccc(CCN(C)CCCC(C#N)(c2cc(OC)c(OC)c(OC)c2)C(C)C)cc1OC (configuration not stated) [GALLOPAMIL] | 67.1% | – | 3.6 µM
57 | OC(CCCN1CCCCC1)(c1ccccc1)c1ccccc1 [DIPHENIDOL] | 65.1% | – | 3.4 µM
58 | CCOc1ccc(/N=C(\C)Nc2ccc(OCC)cc2)cc1 [PHENACAINE] | 81.1% | – | 1.7 µM
59 | CN(C)CCCN1c2ccccc2CCc2ccccc21 [IMIPRAMINE] | 72.7% | – | 3.6 µM
60 | COc1cc(C(=O)OCCCN(C)CCN(C)CCCOC(=O)c2cc(OC)c(OC)c(OC)c2)cc(OC)c1OC [HEXOBENDINE] | 77.2% | – | 1.4 µM
61 | CNC1=Nc2ccc(Cl)cc2C(c2ccccc2)=[N+]([O-])C1 | 4.4% | 35% | –
62 | C[C@@H]1O[C@H](n2cnc3c(N)ncnc32)C[C@H]1O | – | 3.5% | –
63 | Cc1ccc(N(CC2=NCCN2)c2cccc(O)c2)cc1 [PHENTOLAMINE] | 54.6% | – | 8.4 µM
64 | Nc1nc(Cl)nc2c1ncn2[C@@H]1O[C@H](CO)[C@@H](O)[C@H]1O | 1.3% | 3.5% | –
65 | CC1CCCCN1CCCOC(=O)c1ccccc1 (configuration not stated) [PIPEROCAINE] | 43.6% | – | 13 µM
66 | CCOC(=O)C1=C(C)NC(C)=C(C(=O)OC)C1c1cccc([N+](=O)[O-])c1 (configuration not stated) [NITRENDIPINE] | 23.1% | – | 36 µM
67 | CNCCCC1c2ccccc2C=Cc2ccccc21 [PROTRIPTYLINE] | 70.3% | – | < 10 µM
68 | Cn1c(=O)c2c(ncn2C)n(C)c1=O [CAFFEINE] | 9.7% | – | 660 µM
69 | OCCOCCN1CCN(C(c2ccccc2)c2ccc(Cl)cc2)CC1 (configuration not stated) [HYDROXYZINE] | 73.9% | – | < 10 µM
70 | CCN(CC)CC(=O)Nc1c(C)cccc1C | 9.8% | 31.4% | –
71 | CCCCc1cc2ccccc2c(OCCN(C)C)n1 [DIMETHISOQUIN] | 73.4% | – | 3.4 µM
72 | CC(C)Cn1c(=O)n(C)c(=O)c2nc[nH]c21 [ISOBUTYLMETHYLXANTHINE] | 0.9% | – | 1.8 µM
73 | C=C(C)[C@@H]1[C@H]2OC(=O)[C@@H]1[C@]1(O)C[C@H]3OC34C(=O)O[C@H]2[C@@]41C.CC(C)(O)[C@@H]1[C@H]2OC(=O)[C@@H]1[C@]1(O)C[C@H]3OC34C(=O)O[C@H]2[C@@]41C (some centres not stated) [PICROTOXIN] | 22.7% | – | 700 µM
74 | CC(CNC1CCCCC1)OC(=O)c1ccccc1 (configuration not stated) [HEXYLCAINE] | 54.9% | – | 7 µM
75 | CN(C)C(=O)C(CCN1CCC(O)(c2ccc(Cl)cc2)CC1)(c1ccccc1)c1ccccc1 [LOPERAMIDE] | 100% | – | 0.27 µM
76 | CN1CCC(=C2c3ccccc3C=Cc3ccccc32)CC1 [CYPROHEPTADINE] | 83% | – | 1 µM
